Laboratory results as given in patent publication US7399823B1, “Antimicrobial theta defensins and methods of using same” (The Regents of the University of California, priority 2000, dated 2008).
Marks after values point to notes of the source that are not given here. Positions of bridges follow the written chain, without caps; N, C: chain ends. Residues, ends and D or L forms follow the SMILES beside them.

How the values were obtained:
Type in all cases: cell-based
[1] = system: Staphylococcus aureus 502a; experiment: Microbicidal suspension assay, killing quantified by colony counts; conditions: for % killed: 37 C.
Protocol: Killing was quantified by colony counts.
Additional antimicrobial assays were conducted on other microbial organisms. […] In FIG. […] Killing was quantified by colony counts. […] The limit of detection (1 colony per plate) was equal to 1×10^3 colony forming units in the incubation mixture.
It has been proposed that salt sensitivity of airway defensins underlies the susceptibility of cystic fibrosis patients to pulmonary infections.
(§1) An acyclic version of theta defensin was also tested for antimicrobial activity. […] Killing activity was quantified by colony counts after 18 hrs.
(§2) The microbicidal activity in the presence of physiological salt concentrations was tested against various microorganisms in various buffers.

[2] = system: Salmonella typhimurium, PhoP^−; experiment: as above; conditions: 2 hr, 10 mM PIPES, pH 7.4, 5 mM glucose; FIG. 9
[3] = system: Listeria monocytogenes EDG; experiment: as above; conditions: for % killed: RTD-1 10 mg/ml, 2 h, 37 C.
Candida albicans = experiment: as above
Escherichia coli ML35 [4] = experiment: as above; conditions: for % killed: 2 h, 37 C.
Protocol: Additional antimicrobial assays were conducted on other microbial organisms. […] In FIG. 9A, S. aureus 502a was incubated with increasing concentrations of natural or synthetic peptide for 30 min at 37° C. in 10 mM PIPES, pH 7.4, containing 5 mM glucose. Killing was quantified by colony counts. […] The limit of detection (1 colony per plate) was equal to 1×10^3 colony forming units in the incubation mixture.
as §1, §2

[5] = system: Cryptococcus neoformans 271a; experiment: as above; conditions: for % killed: RTD-1 10 mg/ml, 2 h, 37 C.
Escherichia coli ML35 [6] = experiment: Agar diffusion assay
Protocol: (§3) The purified chromatographic peaks were screened for antibacterial activity against Escherichia coli ML35 and Staphylococcus aureus 502a. Briefly, antibacterial activity was screened with an agar diffusion assay using lyophilized samples of HPLC fractions dissolved in 5 μl of 0.01% acetic acid as described by Lehrer et al., J. Immunol. Methods 137:167-173 (1991)).
(§4) Agar diffusion assays and microbicidal suspension assays were used to examine the activity of theta defensin against Staphylococcus aureus 502A, Escherichia coli ML35, Listeria monocytogenes, and Cryptococcus neoformans.

[7] = system: Staphylococcus aureus 502a; experiment: Agar diffusion assay
Protocol: as §3, §4

Cryptococcus neoformans = experiment: Agar diffusion assay; conditions: 10, 30, 100 or 300 μg/ml; agar seeded with 1×10^6 colony forming units
Text: as §4

Listeria monocytogenes = experiment: Agar diffusion assay; conditions: 10, 30, 100 or 300 μg/ml; agar seeded with 1×10^6 colony forming units
Text: as §4

[8] = 2 hr, 10 mM PIPES, pH 7.4, 5 mM glucose, FIG. 9
[9] = 10 mM PIPES, pH 7.4, 5 mM glucose, 150 mM NaCl
[10] = 10, 30, 100 or 300 μg/ml, agar seeded with 1×10^6 colony forming units

With `CC[C@H](C)[C@@H]1NC(=O)[C@@H]2CSSC[C@H](NC(=O)[C@H](CCCNC(=N)N)NC(=O)[C@@H]3CSSC[C@H](NC1=O)C(=O)N[C@@H]([C@@H](C)O)C(=O)N[C@@H](CCCNC(=N)N)C(=O)NCC(=O)N[C@@H](Cc1ccccc1)C(=O)N3)C(=O)N[C@@H](CC(C)C)C(=O)N[C@H]1CSSC[C@H](NC(=O)[C@H](C(C)C)NC(=O)CNC(=O)[C@H](CCCNC(=N)N)NC(=O)[C@H](CCCNC(=N)N)NC1=O)C(=O)N[C@@H](CCCNC(=N)N)C(=O)N2` [RTD-1] (cyclo(GFCRCLCRRGVCRCICTR); disulfide 3-16, 5-14, 7-12) as the compound, how does the “effect of NaCl on staphylocidal activity” value ([1]; 10 μg/ml peptide, 2 h, NaCl concentrations as high as 150 mM) read?
The value was “little effect”.

And the “microbicidal activity (killing)” value ([1]; 10 mM PIPES, pH 7.4, 5 mM glucose, 37° C., FIG. 9)?
The value was “killed”.

What about the “% killed” value ([1]; 2 h, 10 mM PIPES, pH 7.4, 5 mM glucose, 150 mM NaCl, 1-2 × 10^6 CFU/ml) of the same compound?
The value was greater than 99%.

And the “% killed” value ([1]; 2 h, 10 mM Tris-HCl, pH 7.4, 150 mM NaCl)?
Its value is greater than 99.99%.

What about the “peptide concentration reducing colony counts to below the level of detection” value ([1]; 2 h at 37° C. in 10 mM PIPES, pH 7.4) of the same compound?
Its value is no less than 4 µg/mL.

What about the “% killed” value ([1]; RTD-1 25 mg/ml, 2 h, 10 mM Tris-HCl, pH 7.4, 50% human AB serum) of the same compound?
The value was >99* %.

And the “microbicidal activity (killing)” value [2]?
The value was “killed”.

What about the “microbicidal activity (killing)” value [3, 8] of the same compound?
Its value is “killed”.

What about the “% killed” value [3, 9] of the same compound?
Its value is greater than 99.99%.

What about the “% killed” value ([3]; 10 mM Tris HCl, pH 7.4, 150 mM NaCl) of the same compound?
The value was greater than 99.99%.

What about the “microbicidal activity (killing)” value (Candida albicans; [8]) of the same compound?
The value was “killed”.

And the “% killed” value (Candida albicans; RTD-1 10 mg/ml, 2 h, 37 C., 10 mM Tris HCl, pH 7.4, 150 mM NaCl)?
The value was greater than 98%.

What about the “microbicidal activity (killing)” value (Escherichia coli ML35 [4]; [8]) of the same compound?
Its value is “killed”.

And the “% killed” value (Escherichia coli ML35 [4]; RTD-1 25 mg/ml, 10 mM Tris-HCl, pH 7.4, 25% human AB serum)?
Its value is >99* %.

What about the “% killed” value (Escherichia coli ML35 [4]; RTD-1, 10 mM PIPES, pH 7.4, 5 mM glucose, 150 mM NaCl) of the same compound?
Its value is greater than 99%.

And the “% killed” value (Escherichia coli ML35 [4]; RTD-1, 10 mM Tris-HCl, pH 7.4, 150 mM NaCl)?
Its value is greater than 99.99%.

What about the “activity of cyclic form relative to acyclic form” value (Escherichia coli ML35 [4]; gram negative bacteria (E. coli)) of the same compound?
Its value is “about three times more active”.

What about the “microbicidal activity (killing)” value [5, 8] of the same compound?
Its value is “killed”.

And the “% killed” value [5, 9]?
The value was greater than 99.99%.

And the “% killed” value ([5]; 10 mM Tris-HCl, pH 7.4, 150 mM NaCl)?
The value was greater than 99.99%.

What about the zone of inhibition (Escherichia coli ML35 [6]; [10]) of the same compound?
The zone of inhibition was “dose dependent increase”.

And the “antibacterial activity compared with the other leukocyte peptides isolated” value (Escherichia coli ML35 [6]; screen of purified HPLC peaks)?
The value was “greatest activity”.

And the zone of inhibition [7, 10]?
Its zone of inhibition is “dose dependent increase”.

What about the “antibacterial activity compared with the other leukocyte peptides isolated” value ([7]; screen of purified HPLC peaks) of the same compound?
Its value is “greatest activity”.

What about the zone of inhibition (Cryptococcus neoformans) of the same compound?
The zone of inhibition was “dose dependent increase”.

And the zone of inhibition (Listeria monocytogenes)?
Its zone of inhibition is “dose dependent increase”.
